In US20060281690A1, “Crystalline (2E,4S)-4-[(N-{[(2R)-1-isopropylpiperidin-2-yI]-carbonyl}-3-methyl-L-valyl)(methyl)amino]-2,5-dimethylhex-2-enoic acid and its pharmaceutical uses” (Eisai Co. Ltd., priority 2005, published 2006):
Several values for one entry are separate records, joined by “and”; a condition that tells them apart may be missing. Equal values may be shown once.

Legend:
[1] = Hygroscopicity studies (vapor sorption isotherm); type: physicochemical
[2] = Solid state stability studies, 21 days; type: physicochemical; conditions: for Total impurities: HPLC area-%
Protocol: The solid-state stability of crystalline E7974-form M1—unsolvated was evaluated for 21 days. […] In addition, a different peak appeared at only a 0.12% level for sample stored at 40° C. and exposed to 75% relative humidity.

[3] = tested on: several cell lines, including human lung carcinoma, human colon carcinoma and human melanoma; conditions: several cell lines incl. human lung carcinoma; cited from earlier work
[4] = 25° C., visible light (6.8 million lux-hours), 21 d

Q: Which increase in weight ([1]; at 70% RH, 25° C., FIG. 2) does the source give for C/C(=C\[C@H](C(C)C)N(C)C(=O)[C@@H](NC(=O)[C@H]1CCCCN1C(C)C)C(C)(C)C)C(=O)O [Crystalline E7974-form M1—unsolvated, (2E,4S)-4-[(N-{[(2R)-1-isopropylpiperidin-2-yl]carbonyl}-3-methyl-L-valyl)(methyl)amino]-2,5-dimethylhex-2-enoic acid] here?
A: 1.9%

Q: And the deliquescence ([1]; high relative humidity (% RH), FIG. 1)?
A: deliquesces at high relative humidity

Q: What about the water adsorption reversibility ([1]; up to 70% RH) of the same compound?
A: reversible up to 70% RH

Q: What about the hygroscopicity classification ([1]; up to 70% RH, criterion: hygroscopic = not less than 3.0% water increase at 75% RH for a week) of the same compound?
A: non-hygroscopic

Q: And the hygroscopicity ([1]; vapor sorption isotherm, FIG. 1)?
A: slightly hygroscopic

Q: What about the Total impurities ([2]; 25° C., light shield, 21 d) of the same compound?
A: 0.76%

Q: And the Wt/Wt ([2]; 25° C., light shield, 21 d, control: −20° C. light shielded sample)?
A: 100.3%

Q: What about the Wt/Wt [2, 4] of the same compound?
A: 99.9%

Q: And the Total impurities [2, 4]?
A: 0.87%

Q: What about the Wt/Wt ([2]; 40° C., 75% RH, 21 d) of the same compound?
A: 102.2%

Q: What about the Total impurities ([2]; 40° C., 75% RH, 21 d) of the same compound?
A: 0.89%

Q: What about the “level of a different new impurity peak” value ([2]; 40° C., 75% relative humidity, 21 days) of the same compound?
A: 0.12%

Q: What about the Wt/Wt ([2]; 60° C., light shield, 21 d) of the same compound?
A: 100.9%

Q: And the Total impurities ([2]; 60° C., light shield, 21 d)?
A: 0.78%

Q: What about the “level of new impurity peaks” value ([2]; 21 days at 25° C. and visible light, two new peaks) of the same compound?
A: 0.05% and 0.09%

Q: What about the Total impurities ([2]; Initial, sum of all impurities >0.05%) of the same compound?
A: 0.72%

Q: What about the “changes in the impurity profile” value ([2]; shielded from light, stored at 25 and 60° C., 21 days) of the same compound?
A: No significant changes

Q: And the Total impurities ([2]; −20° C., light shield, 21 d)?
A: 0.72%

Q: For CN[C@H](C(=O)N[C@H](C(=O)N(C)[C@H](/C=C(\C)C(=O)O)C(C)C)C(C)(C)C)C(C)(C)c1cn(C)c2ccccc12 [Hemiasterlin], which antitumor activity [3] is on record?
A: exhibits antitumor activity
